Measurements reported in US8058305B2, “Pyrrolidine derivatives as prostaglandin modulators” (Merck Serono SA, priority 2001, dated 2011).

Legend:
h-EP2 [1] = target: T1, h-EP2 (Homo sapiens, UniProt P43116); assay: Prostaglandin EP2 receptor binding assay (3H-PGE2, SPA); conditions: EP2 receptor membranes, 20 nM 3H-PGE2, pH 6.0, 2 hrs at room temperature
T1 construct: expressed in transfected cells; host or cells: HEK293-EBNA
Protocol: Compounds of the invention were tested in an EP2 receptor binding assay of the following protocol. As referred to herein, the term a “standard EP2 receptor binding assay” designates the following protocol which allows the determination of the affinity of the test compounds for the EP2 receptor

h-EP2 [2] = target: T1, h-EP2; assay: EP2 total cAMP assay; assay type: cell-based; conditions: HEK293-EBNA cells transfected with pCEP4-hEP2, 1 hour at 37° C.
Protocol: Compounds of the invention were tested in a total cAMP assay as follows. HEK293-EBNA cells transfected with pCEP4-hEP2 receptors were seeded in 96 well opaque plate (Costar #3917) at 4×10^4 cells per well in 100 μl of culture medium (D-MEM/F12 supplemented with 10% FBS, […] L-glutamine, and 250 μg/ml of hygromycin; all from GibcoBRL) and incubated at 37° C. After overnight incubation, the medium was removed from each well and replaced with 45 μl of assay medium consisted of phenol red free D-MEM/F-12, 0.1% BSA (GibcoBRL) and 0.1 mM3-isobutyl-1-methyl-xanthine (Sigma). After 15 minutes of incubation at 37° C., 16-16-dimethyl PGE-2 or compounds at desired concentrations in 20 μl of assay medium were added to cells and further incubated at 37° C. for 1 hour. Total cAMP (intra- and extra-cellular) was measured by using a cAMP-screen ELISA System (Tropix, #CS1000).

h-EP4 = h-EP4 (Homo sapiens, UniProt P35408); assay: EP4 receptor binding assay (3H-PGE2, SPA); conditions: EP4 receptor membranes, 20 nM 3H-PGE2, pH 6.0, 2 hrs at room temperature
Protocol: Compounds of the invention were tested in an EP4 receptor binding assay of the following protocol which allows the determination of the affinity of the test compounds for the EP4 receptor.

T1 sequence (P43116 whole entry): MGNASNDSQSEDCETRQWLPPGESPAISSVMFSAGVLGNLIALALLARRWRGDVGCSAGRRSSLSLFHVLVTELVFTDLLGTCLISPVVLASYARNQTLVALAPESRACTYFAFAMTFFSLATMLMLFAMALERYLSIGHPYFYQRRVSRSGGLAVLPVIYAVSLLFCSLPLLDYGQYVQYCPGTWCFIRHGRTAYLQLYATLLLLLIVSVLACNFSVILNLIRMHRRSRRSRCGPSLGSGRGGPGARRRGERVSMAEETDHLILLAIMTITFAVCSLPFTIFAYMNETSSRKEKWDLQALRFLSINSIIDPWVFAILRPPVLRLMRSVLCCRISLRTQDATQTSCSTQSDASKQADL
Chain of h-EP4 (P35408 whole entry): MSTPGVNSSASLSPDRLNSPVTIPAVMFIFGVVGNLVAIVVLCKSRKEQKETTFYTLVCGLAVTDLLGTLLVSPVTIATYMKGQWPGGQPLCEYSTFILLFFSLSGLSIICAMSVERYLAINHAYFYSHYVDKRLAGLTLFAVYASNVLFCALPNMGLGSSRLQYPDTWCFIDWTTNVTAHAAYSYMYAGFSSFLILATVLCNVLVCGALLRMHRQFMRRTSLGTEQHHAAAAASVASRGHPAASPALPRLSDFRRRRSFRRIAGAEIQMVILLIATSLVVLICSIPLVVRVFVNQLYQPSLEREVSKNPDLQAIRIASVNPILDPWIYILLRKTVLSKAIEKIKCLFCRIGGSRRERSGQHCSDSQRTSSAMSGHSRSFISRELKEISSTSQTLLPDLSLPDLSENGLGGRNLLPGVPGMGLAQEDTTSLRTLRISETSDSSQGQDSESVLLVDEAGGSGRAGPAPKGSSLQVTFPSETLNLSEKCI

Ki (h-EP2 [1]) [nM] | EC50 (h-EP2 [2]) [nM] | Ki (h-EP4) [nM] | Compound
5600 | 48 |  | CCCCC[C@@H](O)CCCN1CC[C@@H](Cl)C1C/C=C\CCCC(=O)O (stereo in doubt) [Example 1, (5Z)7-[(2R,3R)-3-Chloro-1-(4-hydroxynonyl)-pyrrolidin-2-yl]-hept-5-enoic acid]
3500 | 250 |  | CCCCC1(C(O)CCCN2CC[C@@H](Cl)[C@@H]2CCc2ccc(C(=O)O)cc2)CCC1 (stereo in doubt) [Example 11, 4-(2-{1-[4-(1-butylcyclobutyl)-4-hydroxybutyl]-3-chloropyrrolidin-2-yl}ethyl)benzoic acid]
10000 | 370 | 5 | Cc1cccc(CC(O)CCN2CCC(=O)[C@@H]2C/C=C\CCCC(=O)O)c1 (stereo partly drawn) [Example 13, (5Z)-7-{(2S)-1-[3-hydroxy-4-(3-methylphenyl)butyl]-3-oxopyrrolidin-2-yl}hept-5-enoic acid]
11000 | 8500 | 156 | (5Z)-7-{(trans-2,3)-3-Chloro-1-[(4S and 4 R)-hydroxy-4-(1-butylcyclobutyl)butyl]pyrrolidin-2-yl}hept-5-enoic acid [Example 15]
